Measurements as given in patent US20210330616A1, “AMELIORATING AGENT FOR OBESITY-RELATED METABOLIC DISEASE” (METABOLIC AND OBESE RESEARCH SCIENCE CORPORATION, priority 2018, published 2021).
Several values for one entry are separate records, joined by “and”; a condition that tells them apart may be missing. Equal entries are not always repeated. Structures can show the parent of a compound that is named as a salt. Where two headings read alike, the source gives them in different places.

What was measured:
[1] = parameters: key to Body weight / Insulin resistance / Hyperglycemia / Hypertension / Blood LDLc / Blood HDLc / Fatty liver: ↓: lowering or mitigating action; ↑: increasing action; →: no change; conditions: cited from earlier work
Helz2 = biological target: T1, Helz2 (Homo sapiens, UniProt Q9BYK8); experiment: High-throughput screening through surface plasmon resonance for low-molecular-weight compounds that bind to Helz2; format: binding; conditions: purified Helz2 protein
T1 construct: 3xFLAG (N); made in house; host or cells: HEK293 cells
Source text: 1. High-Throughput Screening for Low-Molecular-Weight Compounds that Bind to Helz2
HEK293 cells were allowed to express Helz2 by using a Helz2 expression vector (p3×FLAG-CMV10-pDIP2), and Helz2 protein was purified.

Hepatic Leprb expression = Hepatic Leprb expression with oral administration to obese mice; format: in vivo, mice (C57BL6J); conditions: 0.32 mg/kg/day oral, 14 days, vs physiological saline
Description: 3. Hepatic Leprb Expression with Oral Administration of Low-Molecular-Weight Compound
(§1) Six-week-old male mice (C57BL6J) were grown with high-fat diet (fat content: 60 kcal %, Research diets, Inc.) or low-fat diet (fat content: 10.5 kcal %, CLEA Japan, Inc.) for 18 weeks. Thereafter, obese mice fed high-fat diet were separated into two groups, and 0.3 mL of physiological saline was orally administered to one group through a gastric tube for mouse, and 0.3 mL of a solution of a low-molecular-weight compound dissolved in physiological saline was orally administered to the other group through the gastric tube for mouse. Oral administration was performed every day over 14 days during 30 minutes before turning lights off at 18:00 (turning lights on at 6:00, 12-hour light-dark cycle, room temperature: 22° C.). […] Thereafter, the organs were stored at −80° C. Hepatic Leprb expression was measured by means of the qRT-PCR.

[2] = tested on: obese mice fed high-fat diet; experiment: Weights of fat and muscle after oral administration to obese mice; format: in vivo, mice (C57BL6J); conditions: 14-day oral administration
Description: as §1
12. Change in Weights of Fat and Muscle after Oral Administration of Low-Molecular-Weight Compound
The amounts of visceral fat, which evokes metabolic disorder, and muscle (right side) after administration of physiological saline or administration of a low-molecular-weight compound were measured.

[3] = tested on: obese mice fed high-fat diet; experiment: Weights of liver and heart after oral administration to obese mice; format: in vivo, mice (C57BL6J); conditions: 14-day oral administration, vs physiological saline
Description: as §1
9. Change in Weights of Liver and Heart after Oral Administration of Low-Molecular-Weight Compound
The weights of the liver and heart after administration of physiological saline or administration of a low-molecular-weight compound were measured.

[4] = tested on: obese mice fed high-fat diet; experiment: Blood lipid concentration after oral administration to obese mice; format: in vivo, mice (C57BL6J); parameters: key to Blood LDLc / Blood HDLc: ↓: lowering or mitigating action; ↑: increasing action; →: no change
Description: as §1
10. Change in Blood Lipid Concentration after Oral Administration of Low-Molecular-Weight Compound
Fasting blood CM-Tg, VLDL-Tg, LDLc, and HDLc concentrations after administration of physiological saline or administration of a low-molecular-weight compound were measured by using the LipoSEARCH method.

[5] = tested on: obese mice fed high-fat diet; experiment: Blood leptin concentration and food intake after oral administration to obese mice; format: in vivo, mice (C57BL6J)
Description: as §1
5. Change in Blood Leptin Concentration and Food Intake after Oral Administration of Low-Molecular-Weight Compound
Blood leptin concentration after administration of physiological saline or administration of a low-molecular-weight compound were measured by using a mouse leptin ELISA kit (Morinaga Institute of Biological Science, Inc.). The daily food intake of each mouse was measured every day before each administration at 18:00.

[6] = tested on: obese mice fed high-fat diet; experiment: Insulin resistance and blood glucose level after oral administration to obese mice; format: in vivo, mice (C57BL6J); parameters: key to Insulin resistance / Hyperglycemia: ↓: lowering or mitigating action; ↑: increasing action; →: no change
Description: as §1
6. Change in Insulin Resistance and Blood Glucose Level after Oral Administration of Low-Molecular-Weight Compound
Fasting blood glucose and blood insulin concentration after administration of physiological saline or administration of a low-molecular-weight compound were measured respectively by using an enzyme-electrode method with glucose oxidase and a mouse insulin ELISA kit (Morinaga Institute of Biological Science, Inc.). The insulin resistance of each mouse was represented as Homeostatic model assessment of insulin resistance (HOMA-IR) [insulin (mU/L)×blood glucose (mM)÷22.5] index (×100) (Brit J Nutr 101: 701-708, 2009).

[7] = tested on: obese mice fed high-fat diet; experiment: Daily variation of body weight with oral administration to obese mice; format: in vivo, mice (C57BL6J); parameters: key to Body weight: ↓: lowering or mitigating action; ↑: increasing action; →: no change
Description: as §1
4. Daily Variation of Body Weight with Oral Administration of Low-Molecular-Weight Compound
The body weight of each mouse with administration of physiological saline or administration of a low-molecular-weight compound was measured every day before each administration at 18:00.

[8] = tested on: obese mice fed high-fat diet; experiment: Hepatic lipid content after oral administration to obese mice (LipoSEARCH, BODIPY staining); format: in vivo, mice (C57BL6J); parameters: key to Fatty liver: ↓: lowering or mitigating action; ↑: increasing action; →: no change
Description: as §1
8. Change in Hepatic Lipid Content after Oral Administration of Low-Molecular-Weight Compound
Hepatic Tg and Chol contents after administration of physiological saline or administration of a low-molecular-weight compound were measured by using a LipoSEARCH method (Skylight Biotech, Inc.).
To visualize and quantify the amount of fat accumulated in hepatocyte per cell and change in shape of fat, fat globule fluorescent staining with BODIPY (excitation light: 493 nm; fluorescence: 503 nm) was performed. Staining-positive area and size of staining-positive cell were measured in 10 views per mouse hepatocyte in each group. ANOVA was used for intergroup significance test in FIGS. 8-D and 8-E (****. P<0.001).

[9] = tested on: obese mice fed high-fat diet; experiment: Weights of spleen and kidney after oral administration to obese mice; format: in vivo, mice (C57BL6J); conditions: 14-day oral administration, vs physiological saline
Description: as §1
11. Change in Weights of Spleen and Kidney after Oral Administration of Low-Molecular-Weight Compound
The weights of the spleen and kidney after administration of physiological saline or administration of a low-molecular-weight compound were measured.

[10] = tested on: obese mice fed high-fat diet; experiment: Pancreatic weight and pancreatic β-cell function after oral administration to obese mice; format: in vivo, mice (C57BL6J); conditions: 14-day oral administration, vs physiological saline
Description: as §1
7. Change in Pancreatic Weight and Pancreatic β-Cell Function after Oral Administration of Low-Molecular-Weight Compound
Pancreatic weight after administration of physiological saline or administration of a low-molecular-weight compound was measured. The pancreatic β-cell function of each mouse was represented by Homeostatic model assessment-β cell function (HOMA-β) {[insulin (mU/L)×20]÷[blood glucose (mM)−3.5]} index (×100) (Brit J Nutr 101:701-708, 2009).

[11] = tested on: Leprb gene expression in HepG2 cells; experiment: Leprb gene expression in cultured hepatocyte HepG2 (qRT-PCR); format: cell-based; conditions: HepG2, 10^−9 to 10^−7M, 24 to 48 hours
Description: Identification of Low-Molecular-Weight Compound that Promotes Leprb Expression in Cultured Hepatocytes
Because Leprb gene expression is promoted on lowering of the action of Helz2 through binding of a low-molecular-weight compound, the low-molecular-weight compounds that bound to Helz2 were screened with use of increase of Leprb gene expression in cultured hepatocyte as an index. […] The hepatocytes were cultured at 37° C. for 24 to 48 hours, and Leprb gene expression therein was measured through a quantitative real time polymerase chain reaction (qRT-PCR, TaqMan Gene expression assays using LEPRB probes) method.

[12] = in vivo; cited from earlier work
α2-adrenaline receptor = conditions: cited from earlier work
[13] = KD value for binding to and dissociating from Helz2, surface plasmon resonance
[14] = surface plasmon resonance, read-out: KD value for binding to and dissociating from Helz2
[15] = obese mice, 14-day oral administration, fasting, vs physiological saline
[16] = obese mice, 14-day oral administration, vs physiological saline
[17] = obese mice, fatty liver caused by high-fat diet
[18] = Table 1, summary of obese mouse results

T1 sequence (Q9BYK8 whole entry): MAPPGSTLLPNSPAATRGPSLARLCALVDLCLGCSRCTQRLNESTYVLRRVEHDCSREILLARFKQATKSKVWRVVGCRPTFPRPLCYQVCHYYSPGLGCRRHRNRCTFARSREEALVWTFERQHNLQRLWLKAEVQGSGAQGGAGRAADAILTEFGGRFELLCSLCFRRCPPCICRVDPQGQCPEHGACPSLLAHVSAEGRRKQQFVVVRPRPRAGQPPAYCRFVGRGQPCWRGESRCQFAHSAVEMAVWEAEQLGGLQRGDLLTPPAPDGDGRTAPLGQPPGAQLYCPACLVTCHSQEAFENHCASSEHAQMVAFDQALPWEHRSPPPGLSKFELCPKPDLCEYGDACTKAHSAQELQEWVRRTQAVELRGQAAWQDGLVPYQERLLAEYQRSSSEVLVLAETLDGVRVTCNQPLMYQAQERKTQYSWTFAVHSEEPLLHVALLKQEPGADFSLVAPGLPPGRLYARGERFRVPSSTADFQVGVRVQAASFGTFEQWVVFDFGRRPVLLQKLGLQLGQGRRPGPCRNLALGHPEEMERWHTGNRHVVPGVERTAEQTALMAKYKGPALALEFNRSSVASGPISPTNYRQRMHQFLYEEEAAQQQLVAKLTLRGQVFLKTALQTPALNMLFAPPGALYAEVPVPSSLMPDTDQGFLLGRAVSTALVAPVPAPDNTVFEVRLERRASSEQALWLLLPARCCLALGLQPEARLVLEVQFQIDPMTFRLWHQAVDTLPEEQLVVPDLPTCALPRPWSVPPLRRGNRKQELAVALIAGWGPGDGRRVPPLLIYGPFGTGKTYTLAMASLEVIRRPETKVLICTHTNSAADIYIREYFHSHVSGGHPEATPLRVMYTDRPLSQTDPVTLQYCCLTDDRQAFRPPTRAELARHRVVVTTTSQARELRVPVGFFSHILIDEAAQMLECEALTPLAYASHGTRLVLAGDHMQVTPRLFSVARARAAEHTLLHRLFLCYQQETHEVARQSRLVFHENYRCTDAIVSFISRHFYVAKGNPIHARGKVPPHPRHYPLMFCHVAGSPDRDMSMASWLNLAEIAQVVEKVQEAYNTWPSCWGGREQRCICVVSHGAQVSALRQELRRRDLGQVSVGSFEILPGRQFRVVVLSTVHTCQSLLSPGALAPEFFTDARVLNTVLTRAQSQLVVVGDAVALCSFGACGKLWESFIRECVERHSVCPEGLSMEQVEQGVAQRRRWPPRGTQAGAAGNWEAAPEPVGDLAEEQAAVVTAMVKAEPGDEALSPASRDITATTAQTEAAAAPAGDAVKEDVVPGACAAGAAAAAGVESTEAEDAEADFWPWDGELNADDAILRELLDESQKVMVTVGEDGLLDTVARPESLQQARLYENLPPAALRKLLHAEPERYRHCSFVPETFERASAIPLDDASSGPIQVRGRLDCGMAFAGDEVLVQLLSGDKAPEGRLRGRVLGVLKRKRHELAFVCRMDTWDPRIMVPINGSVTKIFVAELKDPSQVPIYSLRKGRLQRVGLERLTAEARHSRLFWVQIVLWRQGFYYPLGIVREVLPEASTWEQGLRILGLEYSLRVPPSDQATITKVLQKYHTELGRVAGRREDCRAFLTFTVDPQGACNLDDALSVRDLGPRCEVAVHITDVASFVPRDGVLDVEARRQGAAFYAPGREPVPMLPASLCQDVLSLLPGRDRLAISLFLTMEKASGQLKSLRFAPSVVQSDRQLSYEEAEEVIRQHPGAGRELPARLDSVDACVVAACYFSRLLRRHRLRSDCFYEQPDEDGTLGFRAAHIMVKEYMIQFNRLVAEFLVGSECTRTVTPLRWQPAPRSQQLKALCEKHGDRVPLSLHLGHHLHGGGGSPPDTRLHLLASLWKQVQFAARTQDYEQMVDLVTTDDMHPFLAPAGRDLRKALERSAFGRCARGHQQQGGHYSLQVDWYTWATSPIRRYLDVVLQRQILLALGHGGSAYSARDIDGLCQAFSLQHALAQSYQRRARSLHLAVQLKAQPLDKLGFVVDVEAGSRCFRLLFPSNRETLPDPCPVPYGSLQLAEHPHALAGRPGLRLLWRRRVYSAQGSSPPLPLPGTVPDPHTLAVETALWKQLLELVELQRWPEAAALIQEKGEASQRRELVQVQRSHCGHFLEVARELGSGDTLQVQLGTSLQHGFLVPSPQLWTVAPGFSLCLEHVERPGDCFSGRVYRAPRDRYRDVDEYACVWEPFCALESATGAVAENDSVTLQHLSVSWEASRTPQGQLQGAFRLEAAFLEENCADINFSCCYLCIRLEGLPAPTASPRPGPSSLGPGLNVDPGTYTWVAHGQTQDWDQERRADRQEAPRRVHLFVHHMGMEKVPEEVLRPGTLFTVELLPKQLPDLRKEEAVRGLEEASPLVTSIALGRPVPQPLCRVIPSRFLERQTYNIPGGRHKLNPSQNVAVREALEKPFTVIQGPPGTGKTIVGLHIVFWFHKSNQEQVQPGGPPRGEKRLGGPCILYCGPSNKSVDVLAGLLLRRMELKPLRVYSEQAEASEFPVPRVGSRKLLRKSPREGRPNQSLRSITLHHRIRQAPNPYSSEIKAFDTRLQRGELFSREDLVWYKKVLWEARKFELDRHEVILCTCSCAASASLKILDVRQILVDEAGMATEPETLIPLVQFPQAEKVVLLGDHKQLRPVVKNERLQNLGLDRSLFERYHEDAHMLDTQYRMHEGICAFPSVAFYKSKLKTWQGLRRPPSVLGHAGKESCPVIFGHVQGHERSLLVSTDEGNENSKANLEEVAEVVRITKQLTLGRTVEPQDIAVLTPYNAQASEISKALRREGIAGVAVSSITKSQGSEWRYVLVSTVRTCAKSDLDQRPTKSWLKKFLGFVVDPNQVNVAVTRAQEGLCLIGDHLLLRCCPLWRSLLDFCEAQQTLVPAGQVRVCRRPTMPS

## CN(C)C(=N)N=C(N)N [Metformin]
[1]; Table 1, comparator drugs
  Blood HDLc: →
  Blood LDLc: →
  Body weight: →
  Fatty liver: →
  Hyperglycemia: ↓
  Hypertension: →
  Insulin resistance: ↓
[1]; comparison, comparator drugs
  action on insulin resistance: ameliorate insulin resistance
  anti-fatty liver action: does not exhibit anti-fatty liver action
  anti-obesity action: does not exhibit anti-obesity action
  hyperglycemia-mitigating action: exhibits hyperglycemia-mitigating action

## CC(C)CC(N(C)C)C1(c2ccc(Cl)cc2)CCC1 (centres unmarked) [sibutramine hydrochloride]
Helz2; [13]
  Kd: 1 to 490 nM

## NCCCNCCSP(=O)(O)O [amifostine trihydrate]
Helz2; [14]
  Kd: 1 to 490 nM

## CN(C)CCC(c1ccc(Br)cc1)c1ccccn1 (centres unmarked) [brompheniramine maleate]
Helz2; [14]
  Kd: 1 to 490 nM

## CCN(C)C(=O)Oc1cccc([C@H](C)N(C)C)c1 [rivastigmine tartrate]
Helz2; [13]
  Kd: 1 to 490 nM

## CC(NCCc1ccc(O)cc1)C(O)c1ccc(O)cc1 (centres unmarked) [ritodrine hydrochloride]
Helz2; [14]
  Kd: 1 to 490 nM

## N=C(N)N/N=C/c1c(Cl)cccc1Cl [guanabenz acetate]
Hepatic Leprb expression
  Hepatic Leprb gene expression: significantly increased
[2]
  muscle weight of gastrocnemius muscle: not affected
  muscle weight of plantaris muscle: not affected
  muscle weight of soleus muscle: not affected
[2]; vs physiological saline
  amount of intestinal membrane fat: not changed
  amount of peritesticular fat: not changed
  amount of total visceral fat: not changed
[3]
  weight of heart: significantly decreased
  weight of liver: significantly decreased
[4]; [15]
  blood CM-Tg concentration: not changed
  blood HDLc concentration: not changed
  blood LDLc concentration: significantly decreased
  blood VLDL-Tg concentration: not changed
[5]; obese mice after administration, vs non-obese mice (2.3±0.5 ng/mL)
  blood leptin concentration relative to non-obese mice: ≥ 10 fold
[5]; [16]
  blood leptin concentration: rather slightly decreased
  total food intake accumulation: no significant change
[5]; obese mice, except on day 3 from the beginning of administration, vs physiological saline
  daily food intake: no change in daily food intake
[6]; [15]
  blood glucose levels: lowered the level of hyperglycemia to that in non-obese mice
  blood insulin levels: mitigated hyperinsulinemia
[6]; [16]
  HOMA-IR index (insulin resistance index): suppressed the HOMA-IR index
[7]; obese mice, 0.32 mg/kg/day oral, after day 4 from the beginning of administration, vs physiological saline
  body weight gain: significantly reduced
[7]; obese mice, 0.32 mg/kg/day oral, on day 8 from the beginning of administration, maintained during administration
  Body weight: significant body weight reduction
[8]; [16]
  hepatic Chol content: significantly reduced
  hepatic Tg content: significantly reduced
[8]; [17]
  fat globule area (BODIPY staining-positive area in hepatocyte): significantly decreased
  fat globule cell size (size of BODIPY staining-positive cell): significantly decreased
[9]
  weight of kidney: No change
  weight of spleen: No change
Helz2; [14]
  Kd: 1 to 490 nM and 2.3 nM
[10]
  HOMA-β index (pancreatic β-cell function): not changed
  pancreatic weight: not changed
[11]
  Leprb expression in cultured hepatocyte (index of lowering of Helz2 action): Concentration-dependent increase in Leprb expression

## CC1(C)[C@H](C(=O)O)N2C(=O)C[C@H]2S1(=O)=O [sulbactam]
Helz2; [14]
  Kd: 1 to 490 nM

## NC(N)=N/N=C/c1c(Cl)cccc1Cl [guanabenz, 2-{[(2,6-dichlorophenyl)methylidene]amino}guanidine]
[4]; [18]
  Blood HDLc: →
  Blood LDLc: ↓
[4]; obese mouse results
  action on high LDL cholesterol: exhibits reducing action for high LDL cholesterol
[12]
  absorptivity from a gastrointestinal tract: approximately 75%
  half-life in blood: 4.3 to 6.4 h
  site of metabolism: mostly metabolized in the liver
[6]; [18]
  Hyperglycemia: ↓
  Insulin resistance: ↓
[6]; obese mouse results
  action on insulin resistance: ameliorates insulin resistance
  hyperglycemia-mitigating action: exhibits hyperglycemia-mitigating action
[7]; [18]
  Body weight: ↓
[7]; obese mouse results
  anti-obesity action: exhibits anti-obesity action without reduction of appetite
[8]; [18]
  Fatty liver: ↓
[8]; obese mouse results
  anti-fatty liver action: with anti-fatty liver action
α2-adrenaline receptor
  Ki: 7 nM
[1]; Table 1, *based on clinical data
  Hypertension: ↓*

## C[C@@H](c1ncncc1F)[C@](O)(Cn1cncn1)c1ccc(F)cc1F [voriconazole]
Helz2; [14]
  Kd: 1 to 490 nM

## Cc1nc2ccccn2c(=O)c1CCN1CCC(C(=O)c2ccc(F)cc2)CC1 [pirenperone]
Helz2; [14]
  Kd: 1 to 490 nM

## Clc1cccc(Cl)c1N=C1NCCN1 [clonidine hydrochloride]
Helz2; [14]
  Kd: ≥ 1000 nM

## CN(C)C(=O)C(CCN1CCC(O)(c2ccc(Cl)cc2)CC1)(c1ccccc1)c1ccccc1 [loperamide hydrochloride]
Helz2; [13]
  Kd: 1 to 490 nM

## CC(C)(C)NCC(O)c1ccc(O)c(CO)c1 (centres unmarked) [salbutamol]
Helz2; [14]
  Kd: 1 to 490 nM and 220 nM

## COC(=O)Nc1nc2ccc(Sc3ccccc3)cc2[nH]1 [fenbendazole]
Helz2; [14]
  Kd: 1 to 490 nM
